Measured values taken from patent publication US8586551B2, “18-membered macrocycles and analogs thereof” (Optimer Pharmaceuticals, Inc., priority 2005, dated 2013).
≈ marks a conversion by molar mass, not a printed value.

Tests used:
[1] = test system: Prevotella/Porphyromonas species; assay: MIC against anaerobes: Prevotella/Porphyromonas; assay type: cell-based; conditions: Prevotella/Porphyromonas species (42)
Method: (§1) The in vitro activity of OPT-80 was determined against 350 anaerobes. The experimental procedure for which is outlined in Antimicrobial Agents and Chemotherapy, 2004, 48: 4430-4434, which is hereby incorporated by reference in its entirety.
(§2) All organisms, including the 21 C. difficile strains, were separate isolates and not clonally related. All quality-control gram-negative and -positive strains recommended by NCCLS were included with each run: in every case, results (where available) were in range.

Fusobacterium mortiferum = assay: MIC against anaerobes: Fusobacterium mortiferum; assay type: cell-based; conditions: Fusobacterium mortiferum (10)
Method: as §1, §2

[2] = test system: Peptostreptococcus asaccharolyticus; assay: MIC against anaerobes: Peptostreptococcus asaccharolyticus; assay type: cell-based; conditions: Peptostreptococcus asaccharolyticus (15)
Micromonas micros = assay: MIC against anaerobes: Micromonas micros; assay type: cell-based; conditions: Micromonas micros (14)
[3] = test system: Miscellaneous gram-positive non-spore-forming rods; assay: MIC against anaerobes: miscellaneous gram-positive non-spore-forming rods; assay type: cell-based; conditions: Miscellaneous gram-positive non-spore-forming rods (20)
Clostridium spp. (all) = assay: MIC against anaerobes: Clostridium spp. (all); assay type: cell-based
Method: as §1, §2

[4] = test system: Other anaerobic gram-negative rods; assay: MIC against intestinal bacteria: other anaerobic gram-negative rods; assay type: cell-based
Clostridium bolteae = assay: MIC against intestinal bacteria: Clostridium bolteae; assay type: cell-based; conditions: Clostridium bolteae (7)
[5] = test system: Clostridium clostridioforme; assay: MIC against intestinal bacteria: Clostridium clostridioforme; assay type: cell-based; conditions: Clostridium clostridioforme (4)
Method: (§3) The in vitro activity of OPT-80 against intestinal bacteria was evaluated. The experimental procedure for which is outlined in Antimicrobial Agents and Chemotherapy, 2004, 48: 4898-4902, which is hereby incorporated by reference in its entirety.
(§4) Antimicrobial concentration ranges were selected to encompass or surpass the levels that would be achieved in the gut (to the extent that this information is available), subject to the limitations of solubility of the drugs in the testing medium. The range of concentration of OPT-80 used during testing was 0.03 μg/ml to 1024 μg/ml.
(§5) For analysis, the bacteria tested were generally placed into genus, species, or other groups with at least 10 isolates. The ranges and the MICs at which 50 and 90% of isolates were inhibited were determined except for organisms with fewer than 10 strains tested, for which only the ranges are reported (Table 8).

Clostridium difficile = assay: MIC against intestinal bacteria: Clostridium difficile; assay type: cell-based; conditions: Clostridium difficile (23)
Method: as §3, §4, §5

Clostridium innocuum = assay: MIC against intestinal bacteria: Clostridium innocuum; assay type: cell-based; conditions: Clostridium innocuum (9)
Method: as §3, §4, §5

[6] = test system: Clostridium paraputrificum; assay: MIC against intestinal bacteria: Clostridium paraputrificum; assay type: cell-based; conditions: Clostridium paraputrificum (8)
[7] = test system: Streptococcus, formerly S. milleri group; assay: MIC against intestinal bacteria: Streptococcus, formerly S. milleri group; assay type: cell-based
Enterococcus species = assay: MIC against intestinal bacteria: Enterococcus species; assay type: cell-based; conditions: Enterococcus species (21)
453 bacterial isolates = assay: MIC against intestinal bacteria: total for all strains; assay type: cell-based
S. aureus = assay: MIC against other microorganisms: S. aureus
E. faecium = assay: MIC against other microorganisms: E. faecium

CCc1c(Cl)c(O)c(Cl)c(O)c1C(=O)O[C@H]1[C@H](O)[C@H](OC)[C@H](OCC2=CC=CC[C@H](O)C(C)=C[C@H](CC)[C@@H](O[C@@H]3OC(C)(C)[C@@H](OC(=O)C(C)C)[C@H](O)[C@@H]3O)C(C)=CC(C)=CC[C@@H]([C@@H](C)O)OC2=O)O[C@@H]1C [R-Tiacumicin B, 3-[[[6-Deoxy-4-O-(3,5-dichloro-2-ethyl-4,6-dihydroxybenzoyl)-2-O-methyl-β-D-mannopyranosyl]oxy]-methyl]-12(R)-[[6-deoxy-5-C-methyl-4-O-(2-methyl-1-oxopropyl)-β-D-lyxo-hexopyranosyl]oxy]-11(S)-ethyl-8(S)-hydroxy-18(S)-(1(R)-hydroxyethyl)-9,13,15-trimethyloxacyclooctadeca-3,5,9,13,15-pentaene-2-one]
MIC50 [1]: > 128 mg/L
MIC90 [1]: > 128 mg/L
MIC50 (Fusobacterium mortiferum): > 128 mg/L
MIC90 (Fusobacterium mortiferum): > 128 mg/L
MIC50 ([2]; Peptoniphilus asaccharolyticus): 0.5 mg/L (≈ 0.473 µM)
MIC90 ([2]; Peptoniphilus asaccharolyticus): 1 mg/L (≈ 0.945 µM)
MIC range [2]: 0.25 to 1.0 mg/L
MIC range (Micromonas micros): <0.016 to 0.06 mg/L
MIC50 (Micromonas micros; Parvimonas micra): 0.03 mg/L (≈ 0.0284 µM)
MIC90 (Micromonas micros; Parvimonas micra): 0.06 mg/L (≈ 0.0567 µM)
MIC50 [3]: < 0.125 mg/L
MIC90 [3]: 16 mg/L (≈ 15.1 µM)
MIC range [3]: <0.016 to 16 mg/L
MIC50 (Clostridium spp. (all)): < 0.016 mg/L
MIC90 (Clostridium spp. (all)): 0.06 mg/L (≈ 0.0567 µM)
MIC50 [4]: 1020 mg/L (≈ 968 µM)
MIC90 [4]: > 1020 mg/L
MIC range ([4]; Other anaerobic gram-negative rods (51)): 0.06 to 1024 mg/L
MIC range (Clostridium bolteae): 1 to 64 mg/L
MIC range [5]: 4 to 128 mg/L
MIC50 (Clostridium difficile; Clostridioides difficile): 0.12 mg/L (≈ 0.113 µM)
MIC90 (Clostridium difficile; Clostridioides difficile): 0.25 mg/L (≈ 0.236 µM)
MIC range (Clostridium difficile): 0.06 to 2 mg/L
MIC range (Clostridium innocuum): 32 to 128 mg/L
MIC range [6]: 0.06 to 8 mg/L
MIC50 [7]: 32 mg/L (≈ 30.2 µM)
MIC90 [7]: 32 mg/L (≈ 30.2 µM)
MIC range ([7]; formerly S. milleri group (14)): 16 to 64 mg/L
MIC50 (Enterococcus species): 8 mg/L (≈ 7.56 µM)
MIC90 (Enterococcus species): 8 mg/L (≈ 7.56 µM)
MIC range (Enterococcus species): 2.0 to 16 mg/L
MIC90 (453 bacterial isolates): 1020 mg/L (≈ 968 µM)
MIC50 (453 bacterial isolates; Total for all strains (453)): 8 mg/L (≈ 7.56 µM)
MIC (S. aureus; Staphylococcus aureus, ATCC29213): 4 mg/L (≈ 3.78 µM)
MIC (S. aureus; Staphylococcus aureus, MRSA): 4 mg/L (≈ 3.78 µM)
MIC (S. aureus; Strain ID # 3, S. aureus, (MRSA)): 4 mg/L (≈ 3.78 µM)
MIC (E. faecium; Enterococcus faecium): 1 mg/L (≈ 0.945 µM)
MIC (E. faecium; Strain ID # 8, E. faecium Vanc. resistant): 1 mg/L (≈ 0.945 µM)
